Tested on: 885724-159-R-J1-PDC complex spheroid viability
Test: Anticancer human tumor 885724-159-R-J1-PDC patient-derived pancreatic adenocarcinoma cell line growth inhibition [POLQ]
Conditions: for IC50: curve of first compound; for viability, T/C: stronger effect = lower value
Outline: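 Complex spheroid viability model combining PDC tumour cells with endothelial (HUVEC) and MSC stromal cells. Novobiocin, ART-558 or RP6685 were tested singly and in combination with standard and investigational anticancer drugs. Each was titrated in half-log steps from near clinical Cmax, or from 10 microM where Cmax was unknown.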

[1] = second compound 0.0316 µM, first compound 0.00316 µM
[2] = second compound 0.0316 µM, first compound 0.01 µM
[3] = second compound 0.0316 µM, first compound 0.0316 µM
[4] = second compound 0.0316 µM, first compound 0.1 µM
[5] = second compound 0.1 µM, first compound 0.00316 µM
[6] = second compound 0.1 µM, first compound 0.01 µM
[7] = second compound 0.1 µM, first compound 0.0316 µM
[8] = second compound 0.1 µM, first compound 0.1 µM
[9] = second compound 0.316 µM, first compound 0.00316 µM
[10] = second compound 0.316 µM, first compound 0.01 µM
[11] = second compound 0.316 µM, first compound 0.0316 µM
[12] = second compound 0.316 µM, first compound 0.1 µM
[13] = second compound 1 µM, first compound 0.00316 µM
[14] = second compound 1 µM, first compound 0.01 µM
[15] = second compound 1 µM, first compound 0.0316 µM
[16] = second compound 1 µM, first compound 0.1 µM
[17] = second compound 3.16 µM, first compound 0.00316 µM
[18] = second compound 3.16 µM, first compound 0.01 µM
[19] = second compound 3.16 µM, first compound 0.0316 µM
[20] = second compound 3.16 µM, first compound 0.1 µM
[21] = second compound 10 µM, first compound 0.00316 µM
[22] = second compound 10 µM, first compound 0.01 µM
[23] = second compound 10 µM, first compound 0.0316 µM
[24] = second compound 10 µM, first compound 0.1 µM
[25] = second compound 0.0316 µM, first compound 0.316 µM
[26] = second compound 0.0316 µM, first compound 1 µM
[27] = second compound 0.1 µM, first compound 0.316 µM
[28] = second compound 0.1 µM, first compound 1 µM
[29] = second compound 0.316 µM, first compound 0.316 µM
[30] = second compound 0.316 µM, first compound 1 µM
[31] = second compound 1 µM, first compound 0.316 µM
[32] = second compound 1 µM, first compound 1 µM
[33] = second compound 3.16 µM, first compound 0.316 µM
[34] = second compound 3.16 µM, first compound 1 µM
[35] = second compound 10 µM, first compound 0.316 µM
[36] = second compound 10 µM, first compound 1 µM
[37] = second compound 0.0316 µM, first compound 3.16 µM
[38] = second compound 0.0316 µM, first compound 10 µM
[39] = second compound 0.1 µM, first compound 3.16 µM
[40] = second compound 0.1 µM, first compound 10 µM
[41] = second compound 0.316 µM, first compound 3.16 µM
[42] = second compound 0.316 µM, first compound 10 µM
[43] = second compound 1 µM, first compound 3.16 µM
[44] = second compound 1 µM, first compound 10 µM
[45] = second compound 3.16 µM, first compound 3.16 µM
[46] = second compound 3.16 µM, first compound 10 µM
[47] = second compound 10 µM, first compound 3.16 µM
[48] = second compound 10 µM, first compound 10 µM
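Also: spheroids exposed to compounds for 7 days.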

`CC[C@@]1(O)C(=O)OCc2c1cc1n(c2=O)Cc2cc3c(CN(C)C)c(O)ccc3nc2-1` + COC1C(OC(N)=O)C(O)C(Oc2ccc3c(O)c(NC(=O)c4ccc(O)c(CC=C(C)C)c4)c(=O)oc3c2C)OC1(C)C was tested, and the IC50 (second compound 0.0316 µM) was > 100 nM, the IC50 (second compound 0.1 µM) was 94.7 nM and the IC50 (second compound 0.316 µM) was > 100 nM. The IC50 (second compound 1 µM) was > 100 nM, the IC50 (second compound 3.16 µM) was > 100 nM and the IC50 (second compound 10 µM) was > 100 nM. It also gave a viability, T/C (second compound 0.0316 µM, first compound 0.000316 µM) of 102%, a viability, T/C (second compound 0.0316 µM, first compound 0.001 µM) of 101% and a viability, T/C [1] of 84%. The viability, T/C [2] was 98.1%, the viability, T/C [3] was 76.2% and the viability, T/C [4] was 51.3%. For the same molecule, the viability, T/C (second compound 0.1 µM, first compound 0.000316 µM) was 111%, the viability, T/C (second compound 0.1 µM, first compound 0.001 µM) was 117% and the viability, T/C [5] was 97.6%. It also gave a viability, T/C [6] of 97%, a viability, T/C [7] of 76.7% and a viability, T/C [8] of 48.3%. For the same molecule, the viability, T/C (second compound 0.316 µM, first compound 0.000316 µM) was 94.4%, the viability, T/C (second compound 0.316 µM, first compound 0.001 µM) was 101% and the viability, T/C [9] was 94.4%. It also gave a viability, T/C [10] of 87.2%, a viability, T/C [11] of 73.2% and a viability, T/C [12] of 54.4%. It also gave a viability, T/C (second compound 1 µM, first compound 0.000316 µM) of 104%, a viability, T/C (second compound 1 µM, first compound 0.001 µM) of 94.6% and a viability, T/C [13] of 93.7%. It also gave a viability, T/C [14] of 95.3%, a viability, T/C [15] of 76.2% and a viability, T/C [16] of 56.1%. The viability, T/C (second compound 3.16 µM, first compound 0.000316 µM) was 98.5%, the viability, T/C (second compound 3.16 µM, first compound 0.001 µM) was 104% and the viability, T/C [17] was 97%. It also gave a viability, T/C [18] of 84.3%, a viability, T/C [19] of 77.3% and a viability, T/C [20] of 55.1%. It also gave a viability, T/C (second compound 10 µM, first compound 0.000316 µM) of 109%, a viability, T/C (second compound 10 µM, first compound 0.001 µM) of 94.5% and a viability, T/C [21] of 94.4%. It also gave a viability, T/C [22] of 79.2%, a viability, T/C [23] of 66.1% and a viability, T/C [24] of 50.9%.
Molecule `CCc1c2c(nc3ccc(O)cc13)-c1cc3c(c(=O)n1C2)COC(=O)[C@]3(O)CC` + COC1C(OC(N)=O)C(O)C(Oc2ccc3c(O)c(NC(=O)c4ccc(O)c(CC=C(C)C)c4)c(=O)oc3c2C)OC1(C)C has an IC50 (second compound 0.0316 µM) of 42.2 nM, an IC50 (second compound 0.1 µM) of 48.9 nM and an IC50 (second compound 0.316 µM) of 38.3 nM. It also gave an IC50 (second compound 1 µM) of 41.1 nM, an IC50 (second compound 3.16 µM) of 35.3 nM and an IC50 (second compound 10 µM) of 35.8 nM. The viability, T/C [1] was 66.3%, the viability, T/C [2] was 58.3% and the viability, T/C [3] was 44.8%. For the same molecule, the viability, T/C [4] was 47.9%, the viability, T/C [25] was 29% and the viability, T/C [26] was 5.01%. It also gave a viability, T/C [5] of 73.1%, a viability, T/C [6] of 58.2% and a viability, T/C [7] of 47.3%. The viability, T/C [8] was 49.9%, the viability, T/C [27] was 28.7% and the viability, T/C [28] was 4.25%. It also gave a viability, T/C [9] of 80.1%, a viability, T/C [10] of 54.3% and a viability, T/C [11] of 48.6%. For the same molecule, the viability, T/C [12] was 45.7%, the viability, T/C [29] was 30.9% and the viability, T/C [30] was 5%. For the same molecule, the viability, T/C [13] was 75.9%, the viability, T/C [14] was 60.4% and the viability, T/C [15] was 44.1%. It also gave a viability, T/C [16] of 49.9%, a viability, T/C [31] of 27.6% and a viability, T/C [32] of 4.79%. For the same molecule, the viability, T/C [17] was 76.4%, the viability, T/C [18] was 59% and the viability, T/C [19] was 45.1%. The viability, T/C [20] was 44.3%, the viability, T/C [33] was 30% and the viability, T/C [34] was 4.76%. For the same molecule, the viability, T/C [21] was 68.7%, the viability, T/C [22] was 52.3% and the viability, T/C [23] was 48.9%. The viability, T/C [24] was 43.5%, the viability, T/C [35] was 27.5% and the viability, T/C [36] was 4.27%.
Work on `Nc1ccn(C2OC(CO)C(O)C2(F)F)c(=O)n1` (stereo not drawn) + COC1C(OC(N)=O)C(O)C(Oc2ccc3c(O)c(NC(=O)c4ccc(O)c(CC=C(C)C)c4)c(=O)oc3c2C)OC1(C)C yielded an IC50 (second compound 0.0316 µM) of 800 nM, an IC50 (second compound 0.1 µM) of 1860 nM and an IC50 (second compound 0.316 µM) of 3110 nM. The IC50 (second compound 1 µM) was 186 nM, the IC50 (second compound 3.16 µM) was 1550 nM and the IC50 (second compound 10 µM) was > 10000 nM. For the same molecule, the viability, T/C [3] was 61.7%, the viability, T/C [4] was 58.4% and the viability, T/C [25] was 51.4%. The viability, T/C [26] was 49.7%, the viability, T/C [37] was 46.8% and the viability, T/C [38] was 44.3%. For the same molecule, the viability, T/C [7] was 61.6%, the viability, T/C [8] was 57.6% and the viability, T/C [27] was 54%. For the same molecule, the viability, T/C [28] was 52.4%, the viability, T/C [39] was 50.4% and the viability, T/C [40] was 40%. The viability, T/C [11] was 67.8%, the viability, T/C [12] was 55% and the viability, T/C [29] was 52.7%. The viability, T/C [30] was 59.5%, the viability, T/C [41] was 51.8% and the viability, T/C [42] was 44%. The viability, T/C [15] was 71.1%, the viability, T/C [16] was 51.3% and the viability, T/C [31] was 48.4%. For the same molecule, the viability, T/C [32] was 51.6%, the viability, T/C [43] was 45.2% and the viability, T/C [44] was 41.2%. For the same molecule, the viability, T/C [19] was 62.2%, the viability, T/C [20] was 59.4% and the viability, T/C [33] was 52.6%. It also gave a viability, T/C [34] of 48.1%, a viability, T/C [45] of 53.9% and a viability, T/C [46] of 44.2%. The viability, T/C [23] was 69.6%, the viability, T/C [24] was 53.4% and the viability, T/C [35] was 52.9%. It also gave a viability, T/C [36] of 56.9%, a viability, T/C [47] of 50.5% and a viability, T/C [48] of 45.7%.
`O=c1[nH]cc(F)c(=O)[nH]1` + COC1C(OC(N)=O)C(O)C(Oc2ccc3c(O)c(NC(=O)c4ccc(O)c(CC=C(C)C)c4)c(=O)oc3c2C)OC1(C)C was tested, and the IC50 (second compound 0.0316 µM) was > 10000 nM, the IC50 (second compound 0.1 µM) was > 10000 nM and the IC50 (second compound 0.316 µM) was > 10000 nM. The IC50 (second compound 1 µM) was > 10000 nM, the IC50 (second compound 3.16 µM) was > 10000 nM and the IC50 (second compound 10 µM) was > 10000 nM. For the same molecule, the viability, T/C [3] was 103%, the viability, T/C [4] was 104% and the viability, T/C [25] was 91.6%. The viability, T/C [26] was 95.6%, the viability, T/C [37] was 89.4% and the viability, T/C [38] was 80.5%. For the same molecule, the viability, T/C [7] was 117%, the viability, T/C [8] was 96.3% and the viability, T/C [27] was 101%. The viability, T/C [28] was 97%, the viability, T/C [39] was 88.4% and the viability, T/C [40] was 67.5%. It also gave a viability, T/C [11] of 99%, a viability, T/C [12] of 91.9% and a viability, T/C [29] of 103%. For the same molecule, the viability, T/C [30] was 93.8%, the viability, T/C [41] was 80.3% and the viability, T/C [42] was 73.6%. The viability, T/C [15] was 119%, the viability, T/C [16] was 108% and the viability, T/C [31] was 100%. For the same molecule, the viability, T/C [32] was 92.7%, the viability, T/C [43] was 89.6% and the viability, T/C [44] was 71.8%. For the same molecule, the viability, T/C [19] was 104%, the viability, T/C [20] was 94.1% and the viability, T/C [33] was 92.3%. It also gave a viability, T/C [34] of 98.8%, a viability, T/C [45] of 83.5% and a viability, T/C [46] of 73.8%. It also gave a viability, T/C [23] of 113%, a viability, T/C [24] of 86.8% and a viability, T/C [35] of 92.9%. For the same molecule, the viability, T/C [36] was 96.4%, the viability, T/C [47] was 83.2% and the viability, T/C [48] was 70.8%.

Reference: PubChem BioAssay AID1963832 (Molecular Pharmacology Branch, DTP, NCI, 2024)
